Series [1] concerns H. gordonii shoot tips. The series is described as follows: Sterilisation of shoot tips: clean plants free of visible bacteria or fungal growth. Set-up: species or system Hoodia gordonii. On the procedure:
Example 1 investigated the effect of various sterilization protocols on the number of clean shoots and their ability to produce new shoots after sterilization.
A total of 211 shoot tips (5-6 cm) of fresh H. gordonii plant material were collected from cultivation sites.
The shoot tips were washed thoroughly for 3-5 minutes under running tap water and liquid detergent to remove any debris from the field. The spikes on some of the plants were carefully removed with a surgical blade before the sterilisation process. […] Each tub contained around 10 shoot tips placed in 300 ml of the sterilizing solution. The tubs were placed on a shaker at low speed 80 rpm for 5 minutes. After 5 minutes, the mercuric chloride was poured out and the plants were rinsed once in sterile distilled water. After rinsing with sterile distilled water, a second sterilisation process with 30% sodium hypochlorite solution was carried out. The tubs were placed on a shaker at a speed of 80 rpm for 30 or 40 minutes. A total of 188 shoots were sterilized for 30 minutes while […] shoots were sterilized for 40 minutes. After draining the sodium hypochlorite, a batch of the plants were rinsed in distilled sterile water before putting in the initiation medium white another batch was placed directly into the initiation medium without rinsing. Recording of the percentage clean plants was done two weeks after initiation. Clean plants were shoots that were free of visible bacteria or fungal growth.
After sterilisation, the shoot tips were cultured on Murashige and Skoog (M&S) basal salt medium with M&S vitamins supplemented with 30 g/l sucrose, 3 g/l gelrite, 25 mg/l cefotaxime. The phytohormones used for the initiation medium were 17.74 μM Benzylaminopurine (BAP) and 5.71 μM Indole acetic acid (IAA). The pH of all the media tested was adjusted to 5.8 with either 1M potassium hydroxide (KOH) or 1N hydrochloric acid (HCl) before autoclaving at 121° C. for 20 minutes. Each 250 ml bottle contained one shoot tip. All the cultures were incubated at 26±2° C. in a growth room with a 16/8 hour light/dark photoperiod (39-90 μE/m^2/s). New shoot growth normally started a week after sterilisation. After two weeks in culture, bottles that were visibly clean were counted.

For series [2], the system named is Hoodia shoots. As to the kind of experiment: Effect of sucrose concentration on new shoot formation. The settings on record: lowering sucrose from 30 g/l to 20 g/l in the multiplication medium. Type of series: cell-based, Hoodia gordonii. From the text: Example 6 tested the effect of three sucrose concentrations 0, 20 and 30 g/l on new shoot formation. All the other supplements were the same as for the initiation medium in Example 1. M&S basal salt and vitamin was used as the basal medium.
The sucrose concentrations used for the multiplication experiments were 0, 20 and 30 g/l respectively. There was no multiplication on plants placed in the control (0 g/l) medium which had no sugar. The shoots were stunted and started to turn to yellow after three weeks in culture.

Series [3] deals with Hoodia explants. The series is described as follows: Effect of BAP and IAA concentrations and combinations on shoot multiplication. Format: cell-based, Hoodia gordonii. On the procedure: In all the multiplication and later rooting trials, the experiments were carried out in a randomised factorial design with at least four replicates per treatment. The student's t-test was used to determine significant difference between the phytohormone treatments. P values≦0.05 was considered significant.
This example tested the effect of different benzylaminopurine (BAP, cytokinin), indoleacetic acid (IAA, auxin) concentration and combinations on shoot multiplication.
The basal salt medium used for this experiment was M&S basal salt and vitamins. All the other components were the same as used for initiation medium in Example 1. […] Factorial experiments were designed to test the effect of these phytohormones on shoot multiplication.
Each treatment had four replicates. Results were obtained after two sub-cultures.

Series [4] has as its system Hoodia explants. As to the kind of experiment: Effect of gibberellic acid concentrations on shoot elongation and proliferation. Format: cell-based, Hoodia gordonii. Conditions: for Number of new shoots: replicates 1-7. The method, then: This Example investigated the effect of various giberellic acid concentrations on shoot elongation and proliferation.
An average of four shoots per explant was observed when the GA3 concentration was increased from 2.89 μM to 5.78 μM with 17.74 μM of BAP and 5.71 μM of IAA. As the concentration increased, the shoot length was retarded but side shoots were formed.

Consider four compounds from patent US20080261309A1, “IN VITRO MULTIPLICATION OF HOODIA PLANTS” (CONOPCO, INC., D/B/A/ UNILEVER, priority 2007, published 2008).

The structures appear in SMILES notation. Several values for one entry are separate records, joined by “and”; a condition that tells them apart may be missing. Equal entries are not always repeated.

`OCl` [sodium hypochlorite]: the “Appearance of shoot tips after sterilisation” value is given as “still green” in series [1] (30 minute treatment) and “heavily bleached on the external tissue” in series [1] (40 minute treatment). In addition, the “Number of clean plants” value in series [1] (30 minutes of sterilisation, out of 188 plants) is 170 plants out of 188; in series [1] (40 minutes of sterilisation, out of 44 total) it was 41 plants out of 44. Moreover, the “Difference in time taken for shoots to emerge” value in series [1] (40 minutes versus 30 minutes bleach treatment, in favour of 30 minutes) is on record as “about one”. The same compound yielded a Contamination rate in series [1] (sterilizing only with sodium hypochlorite (no mercuric chloride), field grown cultures) of 80%.

`OC[C@H]1O[C@@](CO)(O[C@H]2O[C@H](CO)[C@@H](O)[C@H](O)[C@H]2O)[C@@H](O)[C@@H]1O` [sucrose]: the “Effect on shoot development and multiplication” value in series [2] is reported as “no significant effect”.

As for `c1ccc(CNc2ncnc3[nH]cnc23)cc1` [BAP, benzylaminopurine], the “Average shoots per explant” value in series [3] (BAP 17.74 μM with IAA 5.71 μM) turned out to be 4. Besides, the Callus growth result in series [3] (BAP 17.74 μM with IAA 5.71 μM, compared to BAP 22.19 μM) is “less callus growth”. For the same compound, the “Average side shoots per explant” value in series [3] (BAP 22.19 μM and IAA 5.71 μM) is “four”. Also, the Auxiliary shoots production result in series [3] (BAP concentrations higher than 44.38 μM) is reported as “retarded”.

Turning to `C=C1C[C@]23C[C@@]1(O)CC[C@H]2[C@@]12C=C[C@H](O)[C@@](C)(C(=O)O1)[C@H]2[C@@H]3C(=O)O` [GA3, gibberellic acid], the “Number of new shoots” value is 1 (3×) and 2 (2×) and 0 (2×) in series [4] (GA3 1.44 μM); 3 (3×) and 2 (2×) and 4 (2×) in series [4] (GA3 2.89 μM); 4 (2×) and 5 (2×) and 6 and 7 and 8 in series [4] (GA3 5.77 μM). Besides, the “Shoot elongation and multiplication” value in series [4] (GA3 2.89 μM and 5.77 μM) is “elongated and multiplied better”. Also, in series [4] (GA3 5.77 μM), the “Increase in length of the initial explant” value is around 1 cm. The “Average shoots per explant” value in series [4] (GA3 increased from 2.89 μM to 5.78 μM with 17.74 μM BAP and 5.71 μM IAA) was “four”.
